This is an account of results in patent US12557545B2, “Compound and organic light emitting device comprising the same” (LG Chem, Ltd., priority 2020, dated 2026).

The series can be described thus: Solubility experiment in cyclohexanone. The class given is physicochemical. As to conditions: dissolved in cyclohexanone (CHON) under normal temperature/pressure; whether 0.1 wt % or more was dissolved. As to the method:
In order to confirm the solubility in the solvent used in the solution process of the compounds prepared in the Preparation Examples and the comparative compounds, each of them was dissolved in the solvent cyclohexanone (CHON) under normal temperature/pressure conditions, and it was confirmed whether 0.1 wt % or more was dissolved.

Molecules are shown by their SMILES.

Turning to `Cc1cccc(N(c2cccc3c2oc2ccccc23)c2cccc3c2c2c4ccc5c(c4ccc2n3-c2ccccc2)c2c(N(c3ccc(C(C)(C)C)cc3)c3cccc4c3c3c6ccc7c(c6ccc3n4-c3ccccc3)c3c(N(c4cccc(C)c4)c4cccc6c4oc4ccccc46)cccc3n7-c3ccccc3)cccc2n5-c2ccccc2)c1` [Compound 21], the “Solvent CHON (solubility)” value is given as “◯ (0.1 wt. % or more soluble)”.
For `CC(C)(C)c1ccc(N(c2ccc(C(C)(C)C)cc2)c2ccc3c4c5ccc6c(c5ccc4n(-c4ccccc4)c3c2)c2ccc(N(c3ccc(C(C)(C)C)cc3)c3ccc4c5c7ccc8c(c7ccc5n(-c5ccccc5)c4c3)c3ccc(N(c4ccc(C(C)(C)C)cc4)c4ccc(C(C)(C)C)cc4)cc3n8-c3ccccc3)cc2n6-c2ccccc2)cc1` [Compound 6] the value was “◯ (0.1 wt. % or more soluble)”; for `CC1(C)c2cc(-c3cc4ccccc4o3)ccc2-c2ccc(N(c3ccccc3)c3ccc4c5c6ccc7c(c6ccc5n(-c5ccccc5)c4c3)c3ccc(N(c4ccccc4)c4ccc5c(c4)C(C)(C)c4cc(-c6cc8ccccc8o6)ccc4-5)cc3n7-c3ccccc3)cc21` [Compound J, reference compound], “X (0.1 wt. % or more insoluble)”; for `Cc1cccc(N(c2ccc3c4c5ccc6c(c5ccc4n(-c4ccccc4)c3c2)c2ccc(N(c3ccc(C(C)(C)C)cc3)c3ccc4c5c7ccc8c(c7ccc5n(-c5ccccc5)c4c3)c3ccc(N(c4cccc(C)c4)c4cccc5c4oc4ccccc45)cc3n8-c3ccccc3)cc2n6-c2ccccc2)c2cccc3c2oc2ccccc23)c1` [Compound 1], “◯ (0.1 wt. % or more soluble)”.
The value for `CC(C)(C)c1ccc(N(c2ccc3c4c5ccc6c(c5ccc4n(-c4ccccc4)c3c2)c2ccc(N(c3ccccc3)c3ccc4ccccc4c3)cc2n6-c2ccccc2)c2ccc3c4c5ccc6c(c5ccc4n(-c4ccccc4)c3c2)c2ccc(N(c3ccccc3)c3ccc4ccccc4c3)cc2n6-c2ccccc2)cc1` [Compound 13] was “◯ (0.1 wt. % or more soluble)”.
For `CC(C)(C)c1ccc(N(c2ccc3c4c5ccc6c(c5ccc4n(-c4ccccc4)c3c2)c2ccc(N(c3ccccc3)c3ccc4cc(-c5cc7ccccc7o5)ccc4c3)cc2n6-c2ccccc2)c2ccc3c4c5ccc6c(c5ccc4n(-c4ccccc4)c3c2)c2ccc(N(c3ccccc3)c3ccc4cc(-c5cc7ccccc7o5)ccc4c3)cc2n6-c2ccccc2)cc1` [Compound 10] the value was “◯ (0.1 wt. % or more soluble)”; for `c1ccc(N(c2ccccc2)c2ccc3c4c5ccc6c(c5ccc4n(-c4ccccc4)c3c2)c2ccc(N(c3ccc4cc(-c5cc7ccccc7o5)ccc4c3)c3ccc4c5c7ccc8c(c7ccc5n(-c5ccccc5)c4c3)c3ccc(N(c4ccccc4)c4ccccc4)cc3n8-c3ccccc3)cc2n6-c2ccccc2)cc1` [Compound 12], “◯ (0.1 wt. % or more soluble)”.
Turning to `Cc1cccc(N(c2ccc3c(c2)c2c4ccc5c(c4ccc2n3-c2ccccc2)c2cc(N(c3ccc(C(C)(C)C)cc3)c3ccc4c(c3)c3c6ccc7c(c6ccc3n4-c3ccccc3)c3cc(N(c4cccc(C)c4)c4cccc6c4oc4ccccc46)ccc3n7-c3ccccc3)ccc2n5-c2ccccc2)c2cccc3c2oc2ccccc23)c1` [Compound 19], the “Solvent CHON (solubility)” value is “◯ (0.1 wt. % or more soluble)”.
For `Cc1cccc(N(c2ccc3c4c5ccc6c(c5ccc4n(-c4ccccc4)c3c2)c2ccc(-c3cccc(-c4ccc5c7c8ccc9c(c8ccc7n(-c7ccccc7)c5c4)c4ccc(N(c5cccc(C)c5)c5cccc7c5oc5ccccc57)cc4n9-c4ccccc4)c3)cc2n6-c2ccccc2)c2cccc3c2oc2ccccc23)c1` [Compound 15] the value was “◯ (0.1 wt. % or more soluble)”.
The value for `CC(C)(C)c1ccc(N(c2ccc3c4c5ccc6c(c5ccc4n(-c4ccccc4)c3c2)c2ccc(N(c3ccc(-c4ccc5c(c4)c4ccccc4n5-c4ccccc4)cc3)c3ccc4ccccc4c3)cc2n6-c2ccccc2)c2ccc3c4c5ccc6c(c5ccc4n(-c4ccccc4)c3c2)c2ccc(N(c3ccc(-c4ccc5c(c4)c4ccccc4n5-c4ccccc4)cc3)c3ccc4ccccc4c3)cc2n6-c2ccccc2)cc1` [Compound 9] was “◯ (0.1 wt. % or more soluble)”.
For `Cc1cccc(N(c2ccc3c4c5ccc6c(c5ccc4n(-c4ccccc4)c3c2)c2ccc(Oc3ccc4c5c7ccc8c(c7ccc5n(-c5ccccc5)c4c3)c3ccc(N(c4cccc(C)c4)c4cccc5c4oc4ccccc45)cc3n8-c3ccccc3)cc2n6-c2ccccc2)c2cccc3c2oc2ccccc23)c1` [Compound 17] the value was “◯ (0.1 wt. % or more soluble)”; for `CC(C)(C)c1ccc(N(c2ccc(C(C)(C)C)cc2)c2ccc3c4c5ccc6c(c5ccc4n(-c4ccccc4)c3c2)c2ccc(N(c3ccc(-c4cc5ccccc5o4)cc3)c3ccc4c5c7ccc8c(c7ccc5n(-c5ccccc5)c4c3)c3ccc(N(c4ccc(C(C)(C)C)cc4)c4ccc(C(C)(C)C)cc4)cc3n8-c3ccccc3)cc2n6-c2ccccc2)cc1` [Compound 8], “◯ (0.1 wt. % or more soluble)”; for `Cc1cccc(N(c2ccc3c4c5ccc6c(c5ccc4n(-c4ccccc4)c3c2)c2ccc(N(c3ccccc3)c3ccc4c5c7ccc8c(c7ccc5n(-c5ccccc5)c4c3)c3ccc(N(c4cccc(C)c4)c4cccc5c4oc4ccccc45)cc3n8-c3ccccc3)cc2n6-c2ccccc2)c2cccc3c2oc2ccccc23)c1` [Compound 4], “◯ (0.1 wt. % or more soluble)”.
Consider `Cc1cccc(N(c2ccc3c4c5ccc6c(c5ccc4n(-c4ccccc4)c3c2)c2ccc(-c3ccc4c5c7ccc8c(c7ccc5n(-c5ccccc5)c4c3)c3ccc(N(c4cccc(C)c4)c4cccc5c4oc4ccccc45)cc3n8-c3ccccc3)cc2n6-c2ccccc2)c2cccc3c2oc2ccccc23)c1` [Compound 16], for which the “Solvent CHON (solubility)” value was “◯ (0.1 wt. % or more soluble)”.
In the case of `Cc1cccc(N(c2ccc3c4c5ccc6c(c5ccc4n(-c4ccccc4)c3c2)c2ccc(N(c3ccc4c5c7ccc8c(c7ccc5n(-c5ccccc5)c4c3)c3ccc(N(c4cccc(C)c4)c4cccc5c4oc4ccccc45)cc3n8-c3ccccc3)c3cccc4c3oc3ccccc34)cc2n6-c2ccccc2)c2cccc3c2oc2ccccc23)c1` [Compound 3], the “Solvent CHON (solubility)” value was “◯ (0.1 wt. % or more soluble)”.
For `Cc1cccc(N(c2ccc3c4c5ccc6c(c5ccc4n(-c4ccccc4)c3c2)c2ccc(N(c3ccc(-c4cc5ccccc5o4)cc3)c3ccc4c5c7ccc8c(c7ccc5n(-c5ccccc5)c4c3)c3ccc(N(c4cccc(C)c4)c4cccc5c4oc4ccccc45)cc3n8-c3ccccc3)cc2n6-c2ccccc2)c2cccc3c2oc2ccccc23)c1` [Compound 5], the “Solvent CHON (solubility)” value was “◯ (0.1 wt. % or more soluble)”.
For `CC(C)(C)c1ccc(N(c2ccc(C(C)(C)C)cc2)c2ccc3c4c5ccc6c(c5ccc4n(-c4ccccc4)c3c2)c2ccc(N(c3ccc4c5c7ccc8c(c7ccc5n(-c5ccccc5)c4c3)c3ccc(N(c4ccc(C(C)(C)C)cc4)c4ccc(C(C)(C)C)cc4)cc3n8-c3ccccc3)c3cccc4c3oc3ccccc34)cc2n6-c2ccccc2)cc1` [Compound 7] the value was “◯ (0.1 wt. % or more soluble)”; for `CC(C)(C)c1ccc(N(c2ccc3c4c5ccc6c(c5ccc4n(-c4ccccc4)c3c2)c2ccc(N(c3ccccc3)c3ccccc3)cc2n6-c2ccccc2)c2ccc3c4c5ccc6c(c5ccc4n(-c4ccccc4)c3c2)c2ccc(N(c3ccccc3)c3ccccc3)cc2n6-c2ccccc2)cc1` [Compound 11], “◯ (0.1 wt. % or more soluble)”.
The value for `Cc1cccc(N(c2ccc3c4c5ccc6c(c5ccc4n(-c4ccccc4)c3c2)c2ccc(-c3ccc(-c4ccc5c7c8ccc9c(c8ccc7n(-c7ccccc7)c5c4)c4ccc(N(c5cccc(C)c5)c5cccc7c5oc5ccccc57)cc4n9-c4ccccc4)cc3)cc2n6-c2ccccc2)c2cccc3c2oc2ccccc23)c1` [Compound 14] was “◯ (0.1 wt. % or more soluble)”; that for `Cc1cccc(N(c2ccc3c4c5ccc6c(c5ccc4n(-c4ccccc4)c3c2)c2ccc(N(c3cccc(C)c3)c3cccc4c3oc3ccccc34)cc2n6-c2ccccc2)c2ccc3c4c5ccc6c(c5ccc4n(-c4ccccc4)c3c2)c2ccc(N(c3cccc(C)c3)c3cccc4c3oc3ccccc34)cc2n6-c2ccccc2)c1` [Compound 2] was “◯ (0.1 wt. % or more soluble)”.
